Values after ≈ are worked out from the molar mass of the structure shown. “Also recorded” adds a separate entry of the source.
Assays:
[1] = test system: HL-60 DNA synthesis / RNA synthesis; test: Inhibition of nucleic acid (DNA, RNA) synthesis in HL-60 cells; type: cell-based, human
[2] = test system: tumors; test: Antitumor activity (general statement); conditions: general statement
[3] = test system: L1210/ara-C Leukemia; test: In vivo antitumor test, ara-C resistant L1210 leukemia in mice; conditions: for Number of 60 day survivors per test group / % ILS: Table IV; for Number of 60 day survivors per test group: QD1-9; for % ILS: QD1-9, terminated day 60; for activity against ara-C resistant tumor: result in words
[4] = test system: Janapese Encephalitis virus, strain Najayama; test: Antiviral test in vitro, Japanese encephalitis virus; type: cell-based, Japanese encephalitis virus; host Vero cells
[5] = test system: P388/ara-C (Arabinosyl cytosine resistant P388 leukemia); test: In vivo antitumor test, ara-C resistant P388 leukemia in mice; conditions: for activity against ara-C resistant P388: result in words
[6] = test system: Yellow Fever virus, strain Asibi; test: microbe, parasite or virus in culture; type: cell-based, Yellow Fever virus; host Vero cells
[7] = test system: L1210 leukemia; test: In vivo antitumor test, L1210 leukemia in mice; conditions: for Number of 60 day survivors per test group: QD1-9
[8] = listed as cyclopentenyl cytosine
[9] = minimum toxic drug concentration / ID50, Vero cells
[10] = Table II Experiment 1, tumor IP, IP QD1-9, OD 1.5 mg/kg/injection
[11] = Table II Experiment 2, tumor IP, IP QD1-9, OD 1.5 mg/kg/injection
[12] = IP L1210, IP treatment daily days 1-9, optimum dose 1 mg/kg/inj (Table I)
[13] = IP L1210, IP treatment every 4th day, days 1, 5, 9, optimum dose 4 mg/kg/inj
[14] = IP L1210, IP treatment every 3 hr x 8, days 1, 5, 9, optimum dose 0.5 mg/kg/inj
[15] = Table II Experiment 1, tumor IP, IP QD1-9, OD 1.0 mg/kg/injection
[16] = Table II Experiment 1, tumor IP, oral drug administration, OD 2.25 mg/kg/injection
[17] = Table II Experiment 2, tumor IP, IP QD1-9, OD 1.0 mg/kg/injection
[18] = Table II Experiment 2, tumor IP, oral drug administration, OD 2.25 mg/kg/injection
[19] = Table II Experiment 2, tumor SC, IP QD1-9, OD 1.0 mg/kg/injection

Nc1ccn([C@@H]2C=C(CO)[C@@H](O)[C@H]2O)c(=O)n1 [CPE-C]
RNA synthesis ([1]; 10^-7 M): inhibited to a lesser extent
DNA synthesis, % of control levels ([1]; 24 hrs. after exposure to 10^-7 M): 10%
activity against ara-C resistant tumors and human tumors grown in mice [2]: particularly potent and active agents
Number of 60 day survivors per test group ([3]; CPE-C 1.0 mg/kg): 6/10
% ILS ([3]; CPE-C 1.0 mg/kg): > 650%
Number of 60 day survivors per test group ([3]; CPE-C 1.5 mg/kg): 5/9
% ILS ([3]; CPE-C 1.5 mg/kg): > 650%
Number of 60 day survivors per test group ([3]; CPE-C 2.25 mg/kg): 6/10
% ILS ([3]; CPE-C 2.25 mg/kg): > 650%
activity against ara-C resistant tumor [3]: producing multiple cures against the resistant tumor; also recorded: collaterally sensitive
activity against ara-C resistant tumor [3, 8]: significant antitumor activity
IC50 ([4]; Japanese encephalitis virus, Vero, read-out: ID50): 0.1 µg/mL (≈ 0.418 µM)
VR (virus rating) ([4]; Vero cells, strain Najayama): 2.4
TI (therapeutic index) [4, 9]: 3.1
antiviral activity ([4]; result in words): Good activity; also recorded: greater potency and higher therapeutic index than Ribavarin
% ILS [5, 10]: 165%
LCK [5, 10]: > 6.5 log
Number of 30 day survivors out of six mice [5, 10]: 3
% ILS [5, 11]: 133%
LCK [5, 11]: 3.8 log
activity against ara-C resistant P388 [5]: collaterally sensitive
activity against ara-C resistant P388 [5, 8]: significant antitumor activity
VR (virus rating) ([6]; Vero cells, strain Asibi): 0.9
IC50 ([6]; Yellow fever virus, Vero, read-out: ID50): 5.05 µg/mL (≈ 21.1 µM)
TI (therapeutic index) [6, 9]: 0.1
long term survivors ([7]; IP 1.0 mg/kg, QD 1-9, 30-day, 1.5 mg/kg): Multiple 30-day survivors; also recorded: multiple long term survivors
ILS (median percent increase in life span) [7, 12]: 124%
LCK (approximate log cell kill at the end of treatment) [7, 12]: 3.0 log
ILS (median percent increase in life span) [7, 13]: 91%
LCK (approximate log cell kill at the end of treatment) [7, 13]: 0.1 log
ILS (median percent increase in life span) [7, 14]: 116%
LCK (approximate log cell kill at the end of treatment) [7, 14]: 1.5 log
schedule dependency ([7]; QD 1-9, Q4D, Q3Hx8): no significant schedule dependency
% ILS ([7]; Table II Experiment 1, tumor IC (intracerebral), IP QD1-9, OD 1.5 mg/kg/injection): 45%
% ILS [7, 15]: 212%
LCK [7, 15]: > 6.0 log
Number of 30 day survivors out of six mice [7, 15]: 4
% ILS [7, 16]: 125%
LCK [7, 16]: 1.9 log
% ILS ([7]; Table II Experiment 1, tumor SC, IP QD1-9, OD 1.5 mg/kg/injection): 109%
% ILS ([7]; Table II Experiment 2, tumor IC (intracerebral), IP QD1-9, OD 1.0 mg/kg/injection): 42%
% ILS [7, 17]: 201%
LCK [7, 17]: > 5.8 log
Number of 30 day survivors out of six mice [7, 17]: 2
% ILS [7, 18]: 57%
LCK [7, 18]: -2.2 log
% ILS [7, 19]: 83%
Number of 30 day survivors out of six mice [7, 19]: 1
Number of 60 day survivors per test group ([7]; Table IV, CPE-C 1.0 mg/kg): 1/10
% ILS ([7]; Table IV, CPE-C 1.0 mg/kg, QD1-9, terminated day 60): 116%
Number of 60 day survivors per test group ([7]; Table IV, CPE-C 1.5 mg/kg): 2/9
% ILS ([7]; Table IV, CPE-C 1.5 mg/kg, QD1-9, terminated day 60): 171%
% ILS ([7]; Table IV, CPE-C 2.25 mg/kg, QD1-9, terminated day 60): 146%
potency relative to carbodine, in vivo antitumor ([7]; in vivo antitumor experiments): A similar potency difference
activity and potency relative to carbodine ([7]; initial in vivo tests): significantly greater levels of activity and potency than carbodine
ILS ([7]; intracerebral L1210, text): about 40%
activity, head to head comparison with 3DU ([7]; standard L1210 leukemia): significantly better
